Results: patent publication US9024022B2, “Substrates of O6-alkylguanine-DNA alkyltransferase and mutants thereof” (Cis Bio International, priority 2008, dated 2015)

How the values were obtained:
[1] = target: T1, SNAP-tag enzyme (GST-SNAP-tag-FKBP fusion protein) (Homo sapiens, UniProt P16455, A127T/C150S/C62A/G131K/G132T/K125A/M134L/N157G/R128A/R135S/S159E); assay: Enzymatic reactivity test in an in vitro model (TR-FRET labeling of GST-SNAPtag-FKBP recombinant protein); assay type: biochemical; details: for reactivity of the substrate with the SNAP-tag enzyme: in vitro protein labeling, compared with reference substrate; for percentage of labeling of the SNAP-tag enzyme compared with the reference substrate: after 30 min of incubation, regardless of the concentration of substrate
T1 construct: GST (N)
T1 sequence (P16455 1-182 C62A/K125A/A127T/R128A/G131K/G132T/M134L/R135S/C150S/N157G/S159E limits assumed): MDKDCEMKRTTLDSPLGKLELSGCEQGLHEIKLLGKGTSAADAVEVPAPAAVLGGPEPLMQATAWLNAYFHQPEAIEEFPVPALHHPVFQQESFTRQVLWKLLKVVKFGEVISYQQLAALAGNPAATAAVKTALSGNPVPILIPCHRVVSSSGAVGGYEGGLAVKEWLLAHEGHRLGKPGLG
Description: The test of reactivity of the substrates according to the invention with the SNAP-tag enzyme is based on an in vitro test of labeling a recombinant protein.
In this case, use is made of the FRB and FKBP proteins that interact in the presence of rapamycin.
The FKBP protein is labeled by a first fluorophore via SNAP-tag technology: for this, a GST-SNAPtag-FKBP fusion protein is produced from the pSET7-26b plasmid according to the protocol of the commercial kit (SNAP express pSET7-26b kit, Covalys Biosciences AG, Witterswil/Switzerland). This fusion protein is then brought into contact with the first fluorophore conjugated to a reference BG derivative or to a BG derivative according to the invention.
The FRB protein is itself coupled via conventional conjugation techniques with a donor fluorescent compound (europium TBP cryptate (KTBP), Cisbio Bioassay) or acceptor fluorescent compound (DY647, Dyomics) depending on the case, following the protocols provided with these products.
The table below explains the nature of the pairs of fluorophores in each of the following examples 1 to 4:
In each example, 2 nmol of FRB recombinant protein labeled with a europium cryptate or DY647 (2nd fluorophore) are co-incubated at ambient temperature with 2 nmol of GST-SNAP-tag-FKBP recombinant protein and increasing concentrations of BG labeled by the first fluorophore (BG-fluorophore of the prior art or BG-L1-A-L2-fluorophore according to the invention).
The fluorescence readings are taken at 620 nm and at 665 nm on a RubyStar machine (BMG laboratory) after an excitation at 337 nm. The readings are carried out before and after induction of the FRB/FKBP protein interaction by 100 nM of rapamycin. This interaction is expressed by the emission of a TR-FRET signal. Since the SNAP-tag enzyme can only attach to a single fluorescent group, the increase in the TR-FRET signal is directly proportional to the percentage of labeled proteins in the reaction medium. This in vitro model makes it possible to establish enzymatic labeling kinetics as a function of the excess of substrate involved in the reaction.
The results are indicated either as d665 or as % labeling according to the following formulae: d 665=(signal at 665 nm with the GST-ST-FKBP protein)−(signal at 665 nm without the GST-ST-FKBP protein).
The percentage of labeling is obtained by comparison with the signal corresponding to the maximum labeling that is obtained after 18 hours of incubation. % labeling=(d665 at t measured/d665 18 h of incubation)×100. Procedure of the Enzymatic Reactivity Test in a Cell Model

[2] = target: T2, SNAP-tag-ST26 enzyme (SNAP-tag-mGluR2 fusion protein) (Homo sapiens, UniProt P16455, A127T/C150S/C62A/G131K/G132T/K125A/M134L/N157G/R128A/R135S/S159E); assay: Enzymatic reactivity test in a cell model, SNAP-tag-mGluR2 expressed by COS 7 cells; assay type: cell-based; details: living COS 7 cells, labeling 1 h at 37° C., read-out: half saturation concentration of the enzyme
T2 construct: expressed in transfected cells; host or cells: COS 7 cells, transient electroporation
T2 sequence (P16455 1-182 C62A/K125A/A127T/R128A/G131K/G132T/M134L/R135S/C150S/N157G/S159E limits assumed): T1 sequence (P16455 1-182 C62A/K125A/A127T/R128A/G131K/G132T/M134L/R135S/C150S/N157G/S159E limits assumed)
Description: (§1) This procedure makes it possible to test the reactivity of substrates according to the invention with an AGT expressed by COS 7 cells in the form of a fusion protein with the type 2 glutamate transmembrane receptor (mGluR2).
(§2) Various mutants of AGT were analyzed in this study: SNAP-tag-ST26 or CLIP-tag from Covalys or the N-AGT mutant described by Gronemeyer et al. (Protein Engineering, Design & Selection, Vol. 19, No. 7, pp. 309-316, 2006).
• SNAP-tag-mGluR2 plasmid, prepared from the pSET-26b plasmid according to the protocol of the commercial kit (SNAP express pSTE7-26b kit, Covalys Biosciences) • Invitrogen pcdna3.1 plasmid. This plasmid is used as a negative control; the cells transfected with this plasmid are denoted “mock” and make it possible to determine the level of non-specific labeling. Protocol:
(§3) The transient transfection of the cells is carried out by electroporation using a Biorad electroporator: 10 million cells are transfected by 1 μg SNAP-tag-mGluR2+3 μg pcdna3.1 in a final volume of 300 μl. The electroporation parameters are: 280 V & 1000 μF.
(§4) The cells are then seeded at 150 000 cells per well in Greiner plates (opaque black bottom) previously incubated with polyornithine for 30 minutes at 37° C.
(§5) The cells are cultured in the DMEM+Phenol Red+10% FCS+penicillin/streptomycin+non-essential amino acids medium at 37° C. and 5% CO2. After 24 h of expression, a first washing operation is carried out with 100 μl of this same medium.
(§6) The labeling of the AGT-mGluR2 fusion protein takes place in 100 μl of complete medium with increasing concentrations of BG-fluorophore or BG-L1-A-L2-fluorophore according to the invention for 1 h at 37° C. Before the reading, 4 washing operations are carried out with 100 μl of Tris-Krebs.
(§7) For the substrates bearing fluorophores ATTO647 (example 2), DY647 (examples 1 and 5) and fluorescein-5-EX (example 3), the reading is carried out in 100 μl of Tris-Krebs in direct fluorescence at 682 nm on a Rubystar machine, and at 520 nm for those bearing fluorescein-5-EX (example 3).
(§8) For the substrates bearing the terbium KR complex (examples 4 and 6), the reading is taken in 100 μl of Tris-Krebs in time-resolved fluorescence at 620 nm on a Rubystar machine.

[3] = target: T3, CLIP-tag enzyme (CLIPtag-mGluR2 fusion protein) (Homo sapiens, UniProt P16455, A121V/A127T/A154D/C150Q/C62A/G131N/G132T/G153S/K125A/K32I/L33F/M134L/M60I/N157P/Q115S/Q116H/R128A/R135D/S151G/S152D/S159L/Y114E); assay: Cell model with CLIPtag-mGluR2 and SNAPtag-mGluR2 cotransfection, TR-FRET at 665 nm; assay type: cell-based; details: cells incubated with 300 nM of BG-methylbenzamide-Tb(KR); TR-FRET; read-out: half saturation concentration of CLIPtag
T3 construct: The co-expressed SNAPtag-mGluR2 is a separate chain that carries the FRET partner dye
T3 sequence (P16455 1-207 K32I/L33F/M60I/C62A/Y114E/Q115S/Q116H/A121V/K125A/A127T/R128A/G131N/G132T/M134L/R135D/C150Q/S151G/S152D/G153S/A154D/N157P/S159L): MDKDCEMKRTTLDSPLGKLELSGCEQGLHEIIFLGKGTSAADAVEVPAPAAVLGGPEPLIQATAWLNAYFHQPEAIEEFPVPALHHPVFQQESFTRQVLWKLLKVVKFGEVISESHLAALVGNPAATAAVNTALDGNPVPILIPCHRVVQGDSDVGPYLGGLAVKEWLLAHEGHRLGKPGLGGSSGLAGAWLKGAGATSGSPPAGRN
Description: (§9) The cell model used in this example is different from that used in the preceding examples:
(§10) The cells are either cotransfected with a plasmid coding for the fusion protein CLIPtag-mGluR2 and another plasmid coding for the fusion protein SNAPtag-mGluR2, or transfected with a single plasmid coding for the fusion protein SNAPtag-mGluR2.
(§11) Each cell population is incubated in the presence of 300 nM of BG-methylbenzamide-DY647 and increasing concentrations of reference substrates (BC-Tb(KR)) or of a substrate according to the invention (BC-methylbenzamide-Tb(KR)). The fluorescence is measured at 665 nm in TR-FRET mode on a Rubystar machine and the signal measured is representative of a transfer of energy following the dimerization of two monomers of mGluR2 labeled respectively by DY647 and Tb(KR).
(§12) This example is carried out in the same way as example 7 but the cells are incubated in the presence of 300 nM of BG-methylbenzamide-Tb(KR) and increasing concentrations of reference substrate (BC-DY647) or of substrate according to the invention (BC-methylbenzamide-DY647), the formulae of which are below: […]

[4] = target: T4, CLIP-tag enzyme (CLIPtag-mGluR2 fusion protein) (Homo sapiens, UniProt P16455, K32I/L33F/M60I/C62A/Y114E/Q115S/Q116H/A121V/K125A/A127T/R128A/G131N/G132T/M134L/R135D/C150Q/S151G/S152D/G153S/A154D/N157P/S159L); assay: as above; assay type: cell-based; details: cells incubated with 300 nM of BG-methylbenzamide-DY647; TR-FRET 665 nm; read-out: half saturation concentration of CLIPtag
T4 construct: The co-expressed SNAPtag-mGluR2 is a separate chain that carries the FRET partner dye
T4 sequence (P16455 1-207 K32I/L33F/M60I/C62A/Y114E/Q115S/Q116H/A121V/K125A/A127T/R128A/G131N/G132T/M134L/R135D/C150Q/S151G/S152D/G153S/A154D/N157P/S159L): T3 sequence (P16455 1-207 K32I/L33F/M60I/C62A/Y114E/Q115S/Q116H/A121V/K125A/A127T/R128A/G131N/G132T/M134L/R135D/C150Q/S151G/S152D/G153S/A154D/N157P/S159L)
Description: as §9, §10, §11, §12

[5] = target: T5, N-AGT enzyme (AGT-mGluR2 fusion protein) (Homo sapiens, UniProt P16455); assay: Enzymatic reactivity test in a cell model, N-AGT mutant; assay type: cell-based; details: for EC50: living cells, N-AGT mutant, labeling 1 h at 37° C., read-out: half saturation concentration of the enzyme
T5 construct: fused on or other part: type 2 metabotropic glutamate receptor (mGluR2)
Description: as §1, §2, §3, §4, §5, §6, §7, §8
In order to validate the effect of the substrate according to the invention on another mutant of AGT, a characterization of extracellular labeling with the NAGT mutant was carried out.

T5 sequence (P16455 whole entry, looked up, the tested form may be a part): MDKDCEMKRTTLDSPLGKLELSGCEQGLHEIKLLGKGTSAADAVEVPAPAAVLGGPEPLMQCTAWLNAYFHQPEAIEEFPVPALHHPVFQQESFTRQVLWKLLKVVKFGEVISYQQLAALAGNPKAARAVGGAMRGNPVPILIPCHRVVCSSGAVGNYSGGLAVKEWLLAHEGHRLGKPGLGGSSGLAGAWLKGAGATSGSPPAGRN

Compound: Tb(KR)-aminomethylnicotinamide-benzylguanine [BG-aminomethylnicotinamide-Tb(KR)]
- reactivity of the substrate with the SNAP-tag enzyme [1]: Results similar to those obtained with the compounds of the preceding examples

Compound: Nc1ccc2cc3ccc(N)cc3[n+](CCCC(=O)NCc3ccc(C(=O)NCc4ccc(COc5cc(N)nc6[nH]cnc56)cc4)cc3)c2c1 [BG-methylbenzamide-Atto465, Atto465-methylbenzamide-BG]
- EC50 [2]: 213 nM

Compound: Nc1nc(OCc2ccc(CNC(=O)CCSCC(=O)Nc3ccc(-c4c5ccc(=O)cc-5oc5cc(O)ccc45)c(C(=O)O)c3)cc2)c2nc[nH]c2n1 [BG-fluorescein-5-EX, benzylguanine-fluorescein-5-EX, reference compound]
- reactivity of the substrate with the SNAP-tag enzyme [1]: adequate

Compound: CCN1/C(=C/C=C/C=C/C2=[N+](CC)c3ccc(S(=O)(=O)[O-])cc3C2(C)C)C(C)(CCCC(=O)NCc2ccc(COc3nccc(N)n3)cc2)c2cc(S(=O)(=O)O)ccc21 (centres unmarked) [BC-DY647, benzylcytosine-DY647, reference compound]
- EC50 [3]: 1570 nM

Compound: DY647-aminomethylnicotinamide-benzylguanine [BG-aminomethylnicotinamide-DY647]
- percentage of labeling of the SNAP-tag enzyme compared with the reference substrate ([1]; in vitro): much better

Compound: Tb(KR)-methylbenzamide-BG [BG-methylbenzamide-Tb(KR)]
- reactivity of the substrate with the SNAP-tag enzyme [1]: much better reactivity
- EC50 [2]: 15.4 nM

Compound: CCN1c2cc3c(cc2C(C)=CC1(C)C)C(c1ccc(C(=O)N(C)CCCC(=O)NCc2ccc(C(=O)NCc4ccc(COc5nc(N)nc6[nH]cnc56)cc4)cc2)cc1)=c1cc2c(cc1O3)=[N+](CC)C(C)(C)C=C2C [BG-methylbenzamide-ATTO647N, ATTO647N-methylbenzamide-BG]
- percentage of labeling of the SNAP-tag enzyme compared with the reference substrate ([1]; in vitro): much better

Compound: benzylcytosine-Tb(KR) [BC-Tb(KR), reference compound]
- EC50 [4]: 820 nM

Compound: Atto465-BG [BG-Atto465, reference compound]
- EC50 [2]: 1980 nM

Compound: Nc1nc(OCc2ccc(CNC(=O)c3ccc(CNC(=O)CCSCC(=O)Nc4ccc(-c5c6ccc(=O)cc-6oc6cc(O)ccc56)c(C(=O)O)c4)cc3)cc2)c2nc[nH]c2n1 [BG-methylbenzamide-fluorescein-5-EX, fluorescein-5-EX-benzylamide-BG]
- reactivity of the substrate with the SNAP-tag enzyme [1]: better than that of the reference substrate

Compound: benzylguanine-Tb(KR) [BG-Tb(KR), reference compound]
- EC50 [2]: 60 nM

Compound: DY647-cis-cyclohexane-benzylguanine [BG-cis-cyclohexane-DY647]
- percentage of enzyme labeled compared with the reference substrate ([1]; in vitro, after 1 h of incubation, regardless of the substrate concentration): much better

Compound: CCN1/C(=C/C=C/C=C/C2=[N+](CC)c3ccc(S(=O)(=O)[O-])cc3C2(C)C)C(C)(CCCC(=O)NCc2ccc(C(=O)NCc3ccc(COc4nc(N)nc5[nH]cnc45)cc3)cc2)c2cc(S(=O)(=O)O)ccc21 (centres unmarked) [BG-methylbenzamide-DY647, Dy647-methylbenzamide-BG]
- percentage of labeling of the SNAP-tag enzyme compared with the reference substrate ([1]; in vitro): greatly improved
- EC50 [2]: 91.3 nM
- half saturation concentration, times lower relative to the reference substrate ([5]; N-AGT enzyme, versus BG-DY647): around 2 times
- EC50 [5]: 22.3 nM

Compound: CCN1/C(=C/C=C/C=C/C2=[N+](CC)c3ccc(S(=O)(=O)[O-])cc3C2(C)C)C(C)(CCCC(=O)NCc2ccc(COc3nc(N)nc4[nH]cnc34)cc2)c2cc(S(=O)(=O)O)ccc21 (centres unmarked) [BG-DY647, benzylguanine-Dy647, reference compound]
- EC50 [2]: 168 nM
- EC50 [5]: 43 nM

Compound: Tb(KR)-methylbenzamide-BC [BC-methylbenzamide-Tb(KR)]
- EC50 [4]: 131 nM
